Source: patent publication US6781000B1, “Alpha-ketoamide inhibitors of 20S proteasome” (CV Theurapeutics, Inc., priority 1998, dated 2004)

What follows are compounds tested against T1, chymotrypsin-like activity of 20S proteasome (Bos taurus, UniProt Q2TBX6+Q32KL2) (assay: 20S proteasome chymotryptic activity inhibition assay (Suc-Leu-Leu-Val-Tyr-AMC cleavage)). Conditions: 2 μg 20S proteasome from bovine brain, 50 μM fluorogenic substrate, 15 minutes at 37° C., pH7.5.
T1 construct: was purified to homogeneity from bovine brain according to published methods; from tissue; host or cells: bovine brain
Assay type: biochemical
Protocol: Compounds of this invention prepared according to the method of Example 1 were tested as follows. The 20S catalytic subunit of the proteasome (also known as the multicatalytic proteinase complex) was purified to homogeneity from bovine brain according to published methods (Wilk S. and Orlowski,M 1983, 40 842 J.Neurochem). The chymotryptic activity of the complex is measured by the increase in fluorescence following cleavage of the substrate peptide succinyl-leucine-leucine-valine-tyrosine-7-amino-4methyl coumarin. The standard in vitro assay consists of 2 μg 20S proteasome, 0.1-100 μg/ml proteasome inhibitor in 200 μl 50 mM HEPES, containing 0.1% sodium dodecyl sulphate, pH7.5. The proteolytic reaction is initiated by the addition of 50 μM flourogenic peptide substrate and allowed to progress for 15 minutes at 37° C. The reaction is terminated by the addition of 100 μL of 100 mM acetate buffer, pH4.0. The rate of proteolysis is directly proportional to the amount of liberated aminomethylcoumarin which is measured by fluorescent spectroscopy (EX 370 nm, EM 430 nm).
For `CC(C)CC(NC(=O)C(Cc1cccnc1)NC(=O)C(=O)Cc1c[nH]c2ccccc12)C(=O)NC(C)C(=O)O` (centres unmarked) [Compound 79], the “IC50 for the inhibition of the chymotrypsin-like activity of 20S proteasome” value (“IC50 for the inhibition” for short) was greater than 10 µg/mL. `CC(C)CC(NC(=O)C(Cc1ccc2ccccc2c1)NC(=O)C(=O)Cc1c[nH]c2ccccc12)C(=O)NC(C)C(=O)O` (centres unmarked) [Compound 80] was tested, and the “IC50 for the inhibition” value was greater than 10 µg/mL. With `CC(C)CC(NC(=O)C(Cc1ccc(-c2ccccc2)cc1)NC(=O)C(=O)Cc1c[nH]c2ccccc12)C(=O)NC(C)C(=O)O` (centres unmarked) [Compound 81] the IC50 was greater than 16.4 µM. `CC(C)CC(NC(=O)CNC(=O)C(=O)Cc1c[nH]c2ccccc12)C(=O)NC(Cc1ccc(O)cc1)C(=O)O` (centres unmarked) [Compound 82] gave an IC50 greater than 18.6 µM. In the case of `CC(C)CC(NC(=O)C(NC(=O)C(=O)Cc1c[nH]c2ccccc12)C(C)O)C(=O)NC(Cc1ccc(O)cc1)C(=O)O` (centres unmarked) [Compound 83], the “IC50 for the inhibition” value is reported as greater than 10 µg/mL. `CC(C)CC(NC(=O)CCNC(=O)C(=O)Cc1c[nH]c2ccccc12)C(=O)NC(Cc1ccc(O)cc1)C(=O)O` (centres unmarked) [Compound 84] was tested, and the “IC50 for the inhibition” value was greater than 10 µg/mL. For `CC(C)CC(NC(=O)C(=O)Cc1c[nH]c2ccccc12)C(=O)NC(CC(C)C)C(=O)NCC(=O)O` (centres unmarked) [Compound 85], the “IC50 for the inhibition” value was greater than 10 µg/mL. In the case of `CC(C)CC(NC(=O)C(=O)Cc1c[nH]c2ccccc12)C(=O)NC(CC(C)C)C(=O)NC(Cc1ccc(O)cc1)C(=O)O` (centres unmarked) [Compound 88], the IC50 is reported as greater than 16.9 µM. In the case of `CC(C)CC(NC(=O)CNC(=O)C(=O)Cc1c[nH]c2ccccc12)C(=O)NC(CO)C(=O)O` (centres unmarked) [Compound 89], the “IC50 for the inhibition” value is reported as greater than 10 µg/mL. With `CC(C)CC(NC(=O)CCNC(=O)C(=O)Cc1c[nH]c2ccccc12)C(=O)NC(CO)C(=O)O` (centres unmarked) [Compound 90] the “IC50 for the inhibition” value was greater than 10 µg/mL. `CCCC[C@H](NC(=O)C(=O)Cc1c[nH]c2ccccc12)C(=O)N[C@H](CC(C)C)C(=O)N[C@@H](CO)C(=O)O` [Compound 91] showed an IC50 greater than 19.4 µM. For `CC(C)CC(NC(=O)C(Cc1ccccc1)NC(=O)C(=O)Cc1c[nH]c2ccccc12)C(=O)NC(CO)C(=O)O` (centres unmarked) [Compound 92], the “IC50 for the inhibition” value was greater than 10 µg/mL. In the case of `CC(C)CC(NC(=O)C(NC(=O)C(=O)Cc1c[nH]c2ccccc12)C(C)O)C(=O)NC(CO)C(=O)O` (centres unmarked) [Compound 93], the “IC50 for the inhibition” value is reported as greater than 10 µg/mL. For `CC(C)CC(NC(=O)C(C)NC(=O)C(=O)Cc1c[nH]c2ccccc12)C(=O)NC(CO)C(=O)O` (centres unmarked) [Compound 94], the “IC50 for the inhibition” value was greater than 10 µg/mL. For `CC(C)CC(NC(=O)C(CC(=O)O)NC(=O)C(=O)Cc1c[nH]c2ccccc12)C(=O)NC(CO)C(=O)O` (centres unmarked) [Compound 95], the “IC50 for the inhibition” value was greater than 10 µg/mL. With `CC(C)CC(NC(=O)C(NC(=O)C(=O)Cc1c[nH]c2ccccc12)C(C)C)C(=O)NC(CO)C(=O)O` (centres unmarked) [Compound 96] the “IC50 for the inhibition” value was greater than 10 µg/mL. For `CCCC(NC(=O)C(=O)Cc1c[nH]c2ccccc12)C(=O)NC(CC(C)C)C(=O)NC(CO)C(=O)O` (centres unmarked) [Compound 97], the “IC50 for the inhibition” value was greater than 10 µg/mL. `CC(C)CC(NC(=O)C(Cc1ccc(O)cc1)NC(=O)C(=O)Cc1c[nH]c2ccccc12)C(=O)NC(CO)C(=O)O` (centres unmarked) [Compound 98] was tested, and the “IC50 for the inhibition” value was greater than 10 µg/mL. `CCC(C)C(NC(=O)C(=O)Cc1c[nH]c2ccccc12)C(=O)NC(CC(C)C)C(=O)NC(CO)C(=O)O` (centres unmarked) [Compound 99] was tested, and the “IC50 for the inhibition” value was greater than 10 µg/mL. For `CC(C)CC(NC(=O)C(CC1CCCCC1)NC(=O)C(=O)Cc1c[nH]c2ccccc12)C(=O)NC(CO)C(=O)O` (centres unmarked) [Compound 100], the “IC50 for the inhibition” value was greater than 10 µg/mL. For `CC(C)CC(NC(=O)C(Cc1cccnc1)NC(=O)C(=O)Cc1c[nH]c2ccccc12)C(=O)NC(CO)C(=O)O` (centres unmarked) [Compound 101], the “IC50 for the inhibition” value was greater than 10 µg/mL. For `CC(C)CC(NC(=O)C(Cc1ccc(-c2ccccc2)cc1)NC(=O)C(=O)Cc1c[nH]c2ccccc12)C(=O)NC(CO)C(=O)O` (centres unmarked) [Compound 103], the “IC50 for the inhibition” value was greater than 10 µg/mL. For `CC(C)CC(NC(=O)CNC(=O)C(=O)Cc1c[nH]c2ccccc12)C(=O)NC(Cc1ccccc1)C(=O)O` (centres unmarked) [Compound 104], the “IC50 for the inhibition” value was greater than 10 µg/mL. In the case of `CC(C)CC(NC(=O)CCNC(=O)C(=O)Cc1c[nH]c2ccccc12)C(=O)NC(Cc1ccccc1)C(=O)O` (centres unmarked) [Compound 105], the “IC50 for the inhibition” value is reported as greater than 10 µg/mL. `CCCCC(NC(=O)C(=O)Cc1c[nH]c2ccccc12)C(=O)NC(CC(C)C)C(=O)NC(Cc1ccccc1)C(=O)O` (centres unmarked) [Compound 106] was tested, and the “IC50 for the inhibition” value was greater than 10 µg/mL. `CC(C)CC(NC(=O)C(Cc1ccccc1)NC(=O)C(=O)Cc1c[nH]c2ccccc12)C(=O)NC(Cc1ccccc1)C(=O)O` (centres unmarked) [Compound 107] was tested, and the “IC50 for the inhibition” value was greater than 10 µg/mL. With `CC(C)CC(NC(=O)C(NC(=O)C(=O)Cc1c[nH]c2ccccc12)C(C)O)C(=O)NC(Cc1ccccc1)C(=O)O` (centres unmarked) [Compound 108] the “IC50 for the inhibition” value was greater than 10 µg/mL. With `CC(C)CC(NC(=O)C(C)NC(=O)C(=O)Cc1c[nH]c2ccccc12)C(=O)NC(Cc1ccccc1)C(=O)O` (centres unmarked) [Compound 109] the “IC50 for the inhibition” value was greater than 10 µg/mL. In the case of `CC(C)CC(NC(=O)C(CC(=O)O)NC(=O)C(=O)Cc1c[nH]c2ccccc12)C(=O)NC(Cc1ccccc1)C(=O)O` (centres unmarked) [Compound 110], the “IC50 for the inhibition” value is reported as greater than 10 µg/mL. `CC(C)CC(NC(=O)C(NC(=O)C(=O)Cc1c[nH]c2ccccc12)C(C)C)C(=O)NC(Cc1ccccc1)C(=O)O` (centres unmarked) [Compound 111] was tested, and the “IC50 for the inhibition” value was greater than 10 µg/mL. In the case of `CC(C)CC(NC(=O)C(Cc1ccc(O)cc1)NC(=O)C(=O)Cc1c[nH]c2ccccc12)C(=O)NC(Cc1ccccc1)C(=O)O` (centres unmarked) [Compound 113], the “IC50 for the inhibition” value is reported as greater than 10 µg/mL. With `CCCCC(NC(=O)C(CC(C)C)NC(=O)CNC(=O)C(=O)Cc1c[nH]c2ccccc12)C(=O)O` (centres unmarked) [Compound 119] the “IC50 for the inhibition” value was greater than 10 µg/mL. For `CCCCC(NC(=O)C(CC(C)C)NC(=O)CCNC(=O)C(=O)Cc1c[nH]c2ccccc12)C(=O)O` (centres unmarked) [Compound 120], the “IC50 for the inhibition” value was greater than 10 µg/mL. `CCCCC(NC(=O)C(CC(C)C)NC(=O)C(CCCC)NC(=O)C(=O)Cc1c[nH]c2ccccc12)C(=O)O` (centres unmarked) [Compound 121] was tested, and the “IC50 for the inhibition” value was greater than 10 µg/mL. For `CCCCC(NC(=O)C(CC(C)C)NC(=O)C(Cc1ccccc1)NC(=O)C(=O)Cc1c[nH]c2ccccc12)C(=O)O` (centres unmarked) [Compound 122], the “IC50 for the inhibition” value was greater than 10 µg/mL. For `CCCCC(NC(=O)C(CC(C)C)NC(=O)C(NC(=O)C(=O)Cc1c[nH]c2ccccc12)C(C)O)C(=O)O` (centres unmarked) [Compound 123], the “IC50 for the inhibition” value was greater than 10 µg/mL. With `CCCCC(NC(=O)C(CC(C)C)NC(=O)C(C)NC(=O)C(=O)Cc1c[nH]c2ccccc12)C(=O)O` (centres unmarked) [Compound 124] the “IC50 for the inhibition” value was greater than 10 µg/mL. `CCCC[C@H](NC(=O)[C@@H](CC(C)C)NC(=O)[C@H](CC(=O)O)NC(=O)C(=O)Cc1c[nH]c2ccccc12)C(=O)O` [Compound 125] gave an IC50 greater than 18.4 µM. In the case of `CCCCC(NC(=O)C(CC(C)C)NC(=O)C(NC(=O)C(=O)Cc1c[nH]c2ccccc12)C(C)C)C(=O)O` (centres unmarked) [Compound 126], the “IC50 for the inhibition” value is reported as greater than 10 µg/mL. `CCCCC(NC(=O)C(CC(C)C)NC(=O)C(CCC)NC(=O)C(=O)Cc1c[nH]c2ccccc12)C(=O)O` (centres unmarked) [Compound 127] showed an IC50 greater than 18.9 µM. With `CCCCC(NC(=O)C(CC(C)C)NC(=O)C(Cc1ccc(O)cc1)NC(=O)C(=O)Cc1c[nH]c2ccccc12)C(=O)O` (centres unmarked) [Compound 128] the “IC50 for the inhibition” value was greater than 10 µg/mL. With `CC(C)CC(NC(=O)CNC(=O)C(=O)Cc1c[nH]c2ccccc12)C(=O)NC(CC(=O)O)C(=O)O` (centres unmarked) [Compound 134] the “IC50 for the inhibition” value was greater than 10 µg/mL. With `CC(C)CC(NC(=O)CCNC(=O)C(=O)Cc1c[nH]c2ccccc12)C(=O)NC(CC(=O)O)C(=O)O` (centres unmarked) [Compound 135] the “IC50 for the inhibition” value was greater than 10 µg/mL. With `CCCCC(NC(=O)C(=O)Cc1c[nH]c2ccccc12)C(=O)NC(CC(C)C)C(=O)NC(CC(=O)O)C(=O)O` (centres unmarked) [Compound 136] the “IC50 for the inhibition” value was greater than 10 µg/mL. With `CC(C)CC(NC(=O)C(Cc1ccccc1)NC(=O)C(=O)Cc1c[nH]c2ccccc12)C(=O)NC(CC(=O)O)C(=O)O` (centres unmarked) [Compound 137] the “IC50 for the inhibition” value was greater than 10 µg/mL. For `CC(C)CC(NC(=O)C(NC(=O)C(=O)Cc1c[nH]c2ccccc12)C(C)O)C(=O)NC(CC(=O)O)C(=O)O` (centres unmarked) [Compound 138], the “IC50 for the inhibition” value was greater than 10 µg/mL. In the case of `CC(C)CC(NC(=O)C(C)NC(=O)C(=O)Cc1c[nH]c2ccccc12)C(=O)NC(CC(=O)O)C(=O)O` (centres unmarked) [Compound 139], the “IC50 for the inhibition” value is reported as greater than 10 µg/mL. `CCC(NC(=O)C(=O)Cc1c[nH]c2ccccc12)C(=O)NC(CC(C)C)C(=O)NC(CC(=O)O)C(=O)O` (centres unmarked) [Compound 140] was tested, and the “IC50 for the inhibition” value was greater than 10 µg/mL. With `CC(C)CC(NC(=O)C(NC(=O)C(=O)Cc1c[nH]c2ccccc12)C(C)C)C(=O)NC(CC(=O)O)C(=O)O` (centres unmarked) [Compound 141] the “IC50 for the inhibition” value was greater than 10 µg/mL. For `CCCC(NC(=O)C(=O)Cc1c[nH]c2ccccc12)C(=O)NC(CC(C)C)C(=O)NC(CC(=O)O)C(=O)O` (centres unmarked) [Compound 142], the “IC50 for the inhibition” value was greater than 10 µg/mL.
